Experiment [1] concerns the target Sodium-dependent serotonin transporter (Homo sapiens, UniProt P31645).
Experiment [2] deals with T1, Prostaglandin G/H synthase 1 (Homo sapiens, UniProt P23219). Format: functional.
The target in experiment [3] is T2, Progesterone receptor (Homo sapiens, UniProt P06401).
T2 sequence (P06401 whole entry): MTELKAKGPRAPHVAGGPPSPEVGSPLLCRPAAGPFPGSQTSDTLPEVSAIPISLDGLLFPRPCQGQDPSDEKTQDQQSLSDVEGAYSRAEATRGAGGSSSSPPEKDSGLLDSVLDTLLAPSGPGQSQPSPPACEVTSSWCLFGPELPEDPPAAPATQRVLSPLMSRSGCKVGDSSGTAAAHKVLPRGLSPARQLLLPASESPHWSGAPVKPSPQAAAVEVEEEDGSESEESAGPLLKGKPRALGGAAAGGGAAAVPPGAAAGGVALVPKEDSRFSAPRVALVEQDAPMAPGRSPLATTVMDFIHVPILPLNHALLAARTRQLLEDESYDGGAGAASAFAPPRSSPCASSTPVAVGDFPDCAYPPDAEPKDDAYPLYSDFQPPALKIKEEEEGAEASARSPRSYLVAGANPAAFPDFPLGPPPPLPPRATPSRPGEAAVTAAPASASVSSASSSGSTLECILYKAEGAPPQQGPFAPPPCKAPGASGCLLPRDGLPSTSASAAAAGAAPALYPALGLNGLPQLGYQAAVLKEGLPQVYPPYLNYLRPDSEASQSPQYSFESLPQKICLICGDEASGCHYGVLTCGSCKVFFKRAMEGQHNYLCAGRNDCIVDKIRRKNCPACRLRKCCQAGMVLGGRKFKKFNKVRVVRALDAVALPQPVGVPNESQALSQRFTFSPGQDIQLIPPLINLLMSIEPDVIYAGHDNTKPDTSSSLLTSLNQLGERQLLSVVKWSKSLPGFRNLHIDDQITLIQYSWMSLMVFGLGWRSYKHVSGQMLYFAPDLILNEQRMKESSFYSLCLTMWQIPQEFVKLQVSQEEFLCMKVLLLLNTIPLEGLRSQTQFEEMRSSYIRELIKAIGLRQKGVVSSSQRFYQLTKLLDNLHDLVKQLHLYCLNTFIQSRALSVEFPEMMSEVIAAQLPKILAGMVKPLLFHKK

In experiment [4] the target is D(1A) dopamine receptor (Homo sapiens, UniProt P21728).
Chain of D(1A) dopamine receptor (P21728 whole entry): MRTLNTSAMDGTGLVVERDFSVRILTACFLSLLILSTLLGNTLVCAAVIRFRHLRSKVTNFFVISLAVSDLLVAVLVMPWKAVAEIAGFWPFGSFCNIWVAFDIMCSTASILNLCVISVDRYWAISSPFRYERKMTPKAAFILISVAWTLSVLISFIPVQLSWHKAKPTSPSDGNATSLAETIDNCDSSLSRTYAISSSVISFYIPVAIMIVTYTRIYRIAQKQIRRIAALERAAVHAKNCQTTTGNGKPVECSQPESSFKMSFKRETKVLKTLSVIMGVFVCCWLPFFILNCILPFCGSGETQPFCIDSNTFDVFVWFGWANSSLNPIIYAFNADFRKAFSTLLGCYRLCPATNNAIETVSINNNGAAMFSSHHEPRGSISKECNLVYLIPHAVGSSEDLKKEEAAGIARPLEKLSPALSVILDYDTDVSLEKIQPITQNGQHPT
Experiment [5] has as its target T3, Amine oxidase [flavin-containing] A (Homo sapiens, UniProt P21397).
T3 sequence (P21397 whole entry): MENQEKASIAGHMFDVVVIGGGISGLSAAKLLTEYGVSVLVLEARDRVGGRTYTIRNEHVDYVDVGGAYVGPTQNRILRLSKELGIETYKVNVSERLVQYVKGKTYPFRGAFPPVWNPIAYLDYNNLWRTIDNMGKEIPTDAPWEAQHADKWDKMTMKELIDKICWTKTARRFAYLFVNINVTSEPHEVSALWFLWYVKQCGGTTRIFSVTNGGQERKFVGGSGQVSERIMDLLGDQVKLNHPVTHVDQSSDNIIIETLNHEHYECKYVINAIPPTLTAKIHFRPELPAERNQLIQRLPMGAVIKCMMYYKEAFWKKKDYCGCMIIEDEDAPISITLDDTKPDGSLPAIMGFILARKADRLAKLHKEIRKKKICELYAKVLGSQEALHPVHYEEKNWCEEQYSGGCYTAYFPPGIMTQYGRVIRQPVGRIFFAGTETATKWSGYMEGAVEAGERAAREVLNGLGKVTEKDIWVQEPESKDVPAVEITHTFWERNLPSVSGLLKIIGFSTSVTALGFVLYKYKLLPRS
It counts as functional.

The target in experiment [6] is T4, Adenosine receptor A3 (Homo sapiens, UniProt P0DMS8).
T4 sequence (P0DMS8 whole entry): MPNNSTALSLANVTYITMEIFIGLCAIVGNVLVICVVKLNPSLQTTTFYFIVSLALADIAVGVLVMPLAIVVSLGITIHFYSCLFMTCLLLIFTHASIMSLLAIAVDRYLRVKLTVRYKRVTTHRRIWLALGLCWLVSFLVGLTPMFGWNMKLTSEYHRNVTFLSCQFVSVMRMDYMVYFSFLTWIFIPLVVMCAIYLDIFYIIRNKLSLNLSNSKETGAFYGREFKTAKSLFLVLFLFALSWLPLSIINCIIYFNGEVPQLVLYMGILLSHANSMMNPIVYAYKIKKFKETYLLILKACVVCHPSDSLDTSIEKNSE

The target in experiment [7] is 5-hydroxytryptamine receptor 2B (Homo sapiens, UniProt P41595). It counts as functional, cell-based.
Chain of 5-hydroxytryptamine receptor 2B (P41595 whole entry): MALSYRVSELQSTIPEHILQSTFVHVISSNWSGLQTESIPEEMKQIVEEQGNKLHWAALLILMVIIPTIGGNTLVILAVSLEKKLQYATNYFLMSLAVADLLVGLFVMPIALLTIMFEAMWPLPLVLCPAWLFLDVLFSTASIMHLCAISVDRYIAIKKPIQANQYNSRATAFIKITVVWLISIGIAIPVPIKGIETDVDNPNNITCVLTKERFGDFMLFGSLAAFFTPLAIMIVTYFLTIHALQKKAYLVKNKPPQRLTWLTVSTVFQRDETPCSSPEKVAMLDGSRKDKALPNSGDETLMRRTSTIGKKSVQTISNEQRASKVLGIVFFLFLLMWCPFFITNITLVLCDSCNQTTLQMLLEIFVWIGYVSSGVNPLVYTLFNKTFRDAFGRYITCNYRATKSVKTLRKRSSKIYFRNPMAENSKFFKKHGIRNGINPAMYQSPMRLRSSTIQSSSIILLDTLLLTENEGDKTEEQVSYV
Experiment [8] addresses T1, Prostaglandin G/H synthase 1. It counts as functional. The source holds these as a separate data set.
Experiment [9] has as its target cGMP-inhibited 3',5'-cyclic phosphodiesterase 3A (Homo sapiens, UniProt Q14432). Format: functional.
For experiment [10], the target named is Acetylcholinesterase (Homo sapiens, UniProt P22303). Format: functional.
Experiment [11] has as its target Mu-type opioid receptor (Homo sapiens, UniProt P35372).
Experiment [12] addresses Sodium-dependent noradrenaline transporter (Homo sapiens, UniProt P23975).
The target of experiment [13] is T5, Alpha-1A adrenergic receptor (Homo sapiens, UniProt P35348).
T5 sequence (P35348 whole entry): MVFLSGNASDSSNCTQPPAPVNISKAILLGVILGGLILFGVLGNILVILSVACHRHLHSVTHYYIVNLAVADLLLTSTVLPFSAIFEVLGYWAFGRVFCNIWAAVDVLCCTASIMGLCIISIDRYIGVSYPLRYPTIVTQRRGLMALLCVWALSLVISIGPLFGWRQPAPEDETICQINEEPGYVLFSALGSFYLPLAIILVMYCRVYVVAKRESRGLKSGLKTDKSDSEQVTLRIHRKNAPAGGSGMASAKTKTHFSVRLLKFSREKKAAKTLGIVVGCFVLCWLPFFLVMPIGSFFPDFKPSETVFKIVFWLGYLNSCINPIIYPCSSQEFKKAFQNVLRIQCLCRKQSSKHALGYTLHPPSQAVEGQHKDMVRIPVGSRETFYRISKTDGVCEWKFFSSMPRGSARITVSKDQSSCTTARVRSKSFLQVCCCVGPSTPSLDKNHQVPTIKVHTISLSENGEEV
Format: functional, cell-based.

The target in experiment [14] is Vascular endothelial growth factor receptor 2 (Homo sapiens, UniProt P35968). It counts as functional.
Chain of Vascular endothelial growth factor receptor 2 (P35968 whole entry): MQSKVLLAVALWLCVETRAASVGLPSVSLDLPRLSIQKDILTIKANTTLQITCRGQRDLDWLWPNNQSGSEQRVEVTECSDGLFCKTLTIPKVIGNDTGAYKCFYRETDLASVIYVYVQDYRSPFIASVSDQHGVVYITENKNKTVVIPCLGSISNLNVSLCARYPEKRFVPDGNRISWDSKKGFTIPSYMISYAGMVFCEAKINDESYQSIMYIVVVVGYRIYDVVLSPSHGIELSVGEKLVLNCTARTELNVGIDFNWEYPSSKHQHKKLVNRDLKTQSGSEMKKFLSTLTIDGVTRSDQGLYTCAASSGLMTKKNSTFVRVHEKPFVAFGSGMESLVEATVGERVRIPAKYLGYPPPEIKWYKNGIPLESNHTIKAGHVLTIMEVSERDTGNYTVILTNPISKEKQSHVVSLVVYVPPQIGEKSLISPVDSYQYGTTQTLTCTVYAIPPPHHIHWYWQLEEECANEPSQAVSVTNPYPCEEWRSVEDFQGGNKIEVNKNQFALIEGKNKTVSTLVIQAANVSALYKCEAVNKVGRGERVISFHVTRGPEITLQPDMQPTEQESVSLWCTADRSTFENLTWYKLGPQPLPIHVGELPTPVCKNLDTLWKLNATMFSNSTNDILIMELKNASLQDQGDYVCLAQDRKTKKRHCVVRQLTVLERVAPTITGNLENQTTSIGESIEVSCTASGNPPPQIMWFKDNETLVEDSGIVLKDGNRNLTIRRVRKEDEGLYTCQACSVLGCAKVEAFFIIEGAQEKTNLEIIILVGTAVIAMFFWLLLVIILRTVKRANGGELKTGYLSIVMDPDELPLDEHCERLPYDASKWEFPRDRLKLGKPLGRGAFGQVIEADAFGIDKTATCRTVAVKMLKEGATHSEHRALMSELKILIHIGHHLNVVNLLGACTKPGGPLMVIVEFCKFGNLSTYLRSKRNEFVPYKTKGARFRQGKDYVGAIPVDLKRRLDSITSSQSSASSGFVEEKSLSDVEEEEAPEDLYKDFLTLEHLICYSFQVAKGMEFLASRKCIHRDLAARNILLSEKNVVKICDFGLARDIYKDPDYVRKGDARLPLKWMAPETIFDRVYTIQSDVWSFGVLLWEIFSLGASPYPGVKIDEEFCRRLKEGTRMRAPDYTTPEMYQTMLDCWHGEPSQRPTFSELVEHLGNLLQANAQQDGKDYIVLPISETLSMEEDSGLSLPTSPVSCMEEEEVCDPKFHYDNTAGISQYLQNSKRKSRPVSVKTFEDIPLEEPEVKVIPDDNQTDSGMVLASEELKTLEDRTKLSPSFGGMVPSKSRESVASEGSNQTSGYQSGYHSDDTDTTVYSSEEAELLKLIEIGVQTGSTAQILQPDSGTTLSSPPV
The target of experiment [15] is Histamine H3 receptor (Homo sapiens, UniProt Q9Y5N1).
Chain of Histamine H3 receptor (Q9Y5N1 whole entry): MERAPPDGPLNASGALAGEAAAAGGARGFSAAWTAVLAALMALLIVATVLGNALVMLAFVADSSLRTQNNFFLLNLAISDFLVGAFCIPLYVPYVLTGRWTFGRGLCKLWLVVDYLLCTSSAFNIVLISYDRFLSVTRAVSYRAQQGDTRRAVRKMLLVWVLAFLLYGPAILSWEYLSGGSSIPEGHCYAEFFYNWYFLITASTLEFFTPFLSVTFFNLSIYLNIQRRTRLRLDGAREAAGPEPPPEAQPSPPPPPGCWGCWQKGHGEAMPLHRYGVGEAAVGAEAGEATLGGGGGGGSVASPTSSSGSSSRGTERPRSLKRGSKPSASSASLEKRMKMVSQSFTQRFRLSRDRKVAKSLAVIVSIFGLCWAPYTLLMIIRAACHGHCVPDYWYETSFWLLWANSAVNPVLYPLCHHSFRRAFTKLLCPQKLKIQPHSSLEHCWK
Note: assay procedure not described here.

T1 sequence (P23219 whole entry): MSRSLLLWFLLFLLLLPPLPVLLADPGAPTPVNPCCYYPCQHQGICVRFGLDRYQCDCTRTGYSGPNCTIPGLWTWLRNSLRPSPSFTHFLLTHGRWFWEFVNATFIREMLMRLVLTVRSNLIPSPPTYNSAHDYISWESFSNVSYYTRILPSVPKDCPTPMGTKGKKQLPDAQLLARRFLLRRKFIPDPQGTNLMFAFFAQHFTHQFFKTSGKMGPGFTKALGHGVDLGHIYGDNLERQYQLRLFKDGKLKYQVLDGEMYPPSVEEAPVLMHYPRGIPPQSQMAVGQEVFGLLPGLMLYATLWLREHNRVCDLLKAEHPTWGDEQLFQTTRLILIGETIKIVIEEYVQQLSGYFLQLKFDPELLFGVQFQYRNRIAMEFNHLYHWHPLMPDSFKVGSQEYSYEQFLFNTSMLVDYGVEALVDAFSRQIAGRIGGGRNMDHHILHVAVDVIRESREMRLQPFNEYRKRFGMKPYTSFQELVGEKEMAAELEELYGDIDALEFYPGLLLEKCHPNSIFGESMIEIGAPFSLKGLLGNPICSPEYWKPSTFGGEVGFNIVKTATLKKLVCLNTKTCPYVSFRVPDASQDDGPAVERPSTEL
Chain of Mu-type opioid receptor (P35372 whole entry): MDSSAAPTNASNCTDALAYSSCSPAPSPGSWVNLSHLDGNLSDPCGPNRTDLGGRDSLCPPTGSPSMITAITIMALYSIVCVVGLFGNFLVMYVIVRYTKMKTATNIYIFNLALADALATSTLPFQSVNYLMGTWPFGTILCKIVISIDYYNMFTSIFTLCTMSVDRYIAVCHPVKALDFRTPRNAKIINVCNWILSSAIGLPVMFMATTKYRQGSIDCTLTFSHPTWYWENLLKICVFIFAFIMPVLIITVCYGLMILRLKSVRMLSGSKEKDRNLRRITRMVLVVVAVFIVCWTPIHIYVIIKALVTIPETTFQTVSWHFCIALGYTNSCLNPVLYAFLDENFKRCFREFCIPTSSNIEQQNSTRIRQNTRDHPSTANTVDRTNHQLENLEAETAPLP
Chain of Sodium-dependent noradrenaline transporter (P23975 whole entry): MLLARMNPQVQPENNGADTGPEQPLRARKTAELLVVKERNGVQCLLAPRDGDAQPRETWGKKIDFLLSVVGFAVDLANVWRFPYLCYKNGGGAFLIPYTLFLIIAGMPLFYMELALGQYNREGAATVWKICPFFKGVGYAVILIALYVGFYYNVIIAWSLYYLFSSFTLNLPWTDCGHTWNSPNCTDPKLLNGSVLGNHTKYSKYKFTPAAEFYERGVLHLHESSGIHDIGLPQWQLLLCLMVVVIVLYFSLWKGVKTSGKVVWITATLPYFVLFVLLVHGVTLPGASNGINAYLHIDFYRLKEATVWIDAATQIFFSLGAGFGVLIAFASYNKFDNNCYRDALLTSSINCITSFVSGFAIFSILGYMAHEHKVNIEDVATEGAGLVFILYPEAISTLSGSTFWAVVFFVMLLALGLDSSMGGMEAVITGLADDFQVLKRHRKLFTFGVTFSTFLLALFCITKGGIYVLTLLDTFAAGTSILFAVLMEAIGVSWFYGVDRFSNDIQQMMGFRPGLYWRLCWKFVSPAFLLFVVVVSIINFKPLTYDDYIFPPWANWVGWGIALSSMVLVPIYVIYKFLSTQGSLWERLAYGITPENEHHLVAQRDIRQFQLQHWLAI
Chain of Sodium-dependent serotonin transporter (P31645 whole entry): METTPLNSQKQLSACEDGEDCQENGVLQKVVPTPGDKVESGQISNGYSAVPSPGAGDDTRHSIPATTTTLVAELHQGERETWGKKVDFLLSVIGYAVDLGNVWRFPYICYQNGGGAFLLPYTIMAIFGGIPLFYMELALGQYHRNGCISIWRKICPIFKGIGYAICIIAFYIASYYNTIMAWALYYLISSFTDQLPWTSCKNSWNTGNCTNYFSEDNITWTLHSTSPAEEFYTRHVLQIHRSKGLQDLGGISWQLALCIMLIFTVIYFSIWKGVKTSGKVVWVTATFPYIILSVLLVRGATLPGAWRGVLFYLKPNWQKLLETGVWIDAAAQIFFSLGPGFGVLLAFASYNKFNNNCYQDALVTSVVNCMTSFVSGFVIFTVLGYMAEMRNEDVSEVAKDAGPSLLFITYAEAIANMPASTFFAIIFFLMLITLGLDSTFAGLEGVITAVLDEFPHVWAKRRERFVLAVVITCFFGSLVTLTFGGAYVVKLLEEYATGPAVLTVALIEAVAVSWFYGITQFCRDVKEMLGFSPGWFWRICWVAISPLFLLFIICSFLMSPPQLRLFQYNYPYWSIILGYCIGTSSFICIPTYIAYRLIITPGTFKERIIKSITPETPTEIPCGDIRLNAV

Usually AC50 stands for the concentration at which the activity in the assay is half-maximal. `O=C(Nc1ccc(Cl)cc1)Nc1ccc(Cl)c(Cl)c1` [TRICLOCARBAN]: the concentration at half-maximal activity (AC50) in experiment [1] was more than 30 µM; in experiment [2] it was more than 30 µM; in [3] it was more than 30 µM; in experiment [4], more than 30 µM; in experiment [5] it was more than 30 µM; in experiment [6], 2.08 µM. Besides, the concentration at half-maximal activity (AC50) in experiment [7] was more than 30 µM; in [8], more than 30 µM; in experiment [9], 11.6 µM; in [10] it was more than 30 µM; in experiment [11], 4.85 µM; in [12], 0.863 µM. Further, the AC50 in experiment [13], in [14] and in experiment [15] was more than 30 µM throughout.

`OC[C@@H](O)[C@H](O)[C@@H](O)CO` [XYLITOL]: the half-maximal activity concentration (AC50) in [1], in experiment [2], in experiment [3], in experiment [4], in experiment [5] and in [6] was more than 30 µM each time. Further, the concentration at half-maximal activity (AC50) in [7], in experiment [8], in [9], in experiment [10], in experiment [11] and in experiment [12] was more than 30 µM each time. For the same compound, the half-maximal activity concentration (AC50) in experiment [13], in experiment [14] and in experiment [15] was more than 30 µM in each case.

These data come from ChEMBL document CHEMBL5291721, “A preclinical secondary pharmacology resource illuminates target-adverse drug reaction associations of marketed drugs” (Nat Commun, 2023).
